From ChEMBL document CHEMBL1152844, “Synthesis and anti-HIV studies of 2- and 3-adamantyl-substituted thiazolidin-4-ones” (Eur J Med Chem, 2009)
The source made the active and inactive calls. The calls are words filed in the database; no cut-off is given here.

Experiments:
[1] = biological target: Human immunodeficiency virus type 1 reverse transcriptase (Human immunodeficiency virus 1, UniProt Q72547); experiment: Activity at HIV1 non-nucleoside reverse transcriptase
Human alphaherpesvirus 2 = experiment: Antiviral activity against Herpes simplex virus type 2 infected in HEL cells; format: functional, organism-based
Coxsackievirus B4 [2] = experiment: Antiviral activity against Coxsackievirus B4 infected in human HeLa cells; format: functional, organism-based
Punta Toro virus = experiment: Antiviral activity against Punta Toro virus infected in african green monkey Vero cells; format: functional, organism-based
[3] = test system: Vesicular stomatitis virus; experiment: Antiviral activity against Vesicular stomatitis virus infected in HEL cells; format: functional, organism-based
Coxsackievirus B4 [4] = experiment: Antiviral activity against Coxsackievirus B4 infected in african green monkey Vero cells; format: functional, organism-based
Influenza A virus [5] = experiment: Antiviral activity against Influenza virus type A H1N1 infected in MDCK cells; format: functional, organism-based
Influenza A virus [6] = experiment: Antiviral activity against Influenza virus type A H3N2 infected in MDCK cells; format: functional, organism-based
Human respirovirus 3 = experiment: Antiviral activity against Parainfluenza virus type 3 infected in african green monkey Vero cells; format: functional, organism-based
Vaccinia virus = experiment: Antiviral activity against Vaccinia virus infected in HEL cells; format: functional, organism-based; conditions: Orthopoxvirus vaccinia
Human alphaherpesvirus 1 = experiment: Antiviral activity against Herpes simplex virus type 1 infected in HEL cells; format: functional, organism-based
[7] = test system: Human immunodeficiency virus 2; experiment: Antiviral activity against HIV2 ROD infected in human CEM cells assessed as inhibition of virus-induced cytopathicity after 4 days; format: functional, organism-based; conditions: Human immunodeficiency virus 2, ROD, CCRF-CEM, 96 h
[8] = Selectivity index, ratio of CC50 for human CEM cells to EC50 for HIV1 3B; format: toxicity, cell-based, CCRF-CEM; conditions: read-out: Ratio CC50/EC50
[9] = test system: Respiratory syncytial virus; experiment: Antiviral activity against Respiratory syncytial virus infected in human HeLa cells; format: functional, organism-based
Sindbis virus = experiment: Antiviral activity against Sindbis virus infected in african green monkey Vero cells; format: functional, organism-based
Feline coronavirus = experiment: Antiviral activity against Feline coronavirus infected in crandel feline kidney cells; format: functional, organism-based
[10] = test system: Vesicular stomatitis virus; experiment: Antiviral activity against Vesicular stomatitis virus infected in human HeLa cells; format: functional, organism-based
[11] = test system: Mammalian orthoreovirus 1; experiment: Antiviral activity against Reovirus 1 infected in african green monkey Vero cells; format: functional, organism-based
[12] = biological target: Human immunodeficiency virus type 1 reverse transcriptase (Human immunodeficiency virus 1) (UniProt Q72547); experiment: Ratio of Ki to Km for HIV1 non-nucleoside reverse transcriptase
Influenza B virus = experiment: Antiviral activity against Influenza virus type B infected in MDCK cells; format: functional, organism-based
[13] = Cytotoxicity against HIV-infected human CEM cells; format: cell-based, CCRF-CEM; conditions: HIV-infected CEM (CCRF-CEM) cells
[14] = test system: Human immunodeficiency virus 1; experiment: Antiviral activity against HIV1 3B infected in human CEM cells assessed as inhibition of virus-induced cytopathicity after 4 days; format: functional, organism-based; conditions: Human immunodeficiency virus 1, 3B, CCRF-CEM, 96 h

Row | SMILES | Activity (Human alphaherpesvirus 2) | Activity (Coxsackievirus B4 [2]) | Activity (Punta Toro virus) | Activity [3] | Activity (Coxsackievirus B4 [4]) | Activity (Influenza A virus [5]) | Activity (Influenza A virus [6]) | Activity (Human respirovirus 3) | Activity (Vaccinia virus) | Activity (Human alphaherpesvirus 1) | EC50 [7] [µM] | selectivity ratio [8] | Activity [9] | Activity (Sindbis virus) | Activity (Feline coronavirus) | Activity [10] | Activity [11] | Activity (Influenza B virus) | further results
1 | Cc1cc(C)nc(N2C(=O)CSC2C23CC4CC(CC(C4)C2)C3)c1 (racemic) | inactive | inactive | inactive | inactive | inactive | inactive | inactive | inactive | inactive | inactive | > 12 | 120 | inactive | inactive | inactive | inactive | inactive | inactive | Ki [1]: 12 µM; Ratio [12]: 5.5
2 | CCN(CC)CCN1C(=O)CSC1CC12CC3CC(CC(C3)C1)C2 (stereo not given) | inactive | inactive | inactive | inactive | inactive | inactive | inactive | inactive | inactive | inactive | 46 | < 1.4 | inactive | inactive | inactive | inactive | inactive | inactive | CC50 [13]: 43 µM; EC50 [14]: 30.8 µM
